Experimental data: paper PMC8703412 (Pharmaceuticals, 2021)
≈ marks a conversion by molar mass, not a printed value. Like-named read-outs stand apart in the source and are kept apart here.

Legend:
Assay in all cases: microbe, parasite or virus in culture
Format in all cases: cell-based, Mycobacterium tuberculosis
Conditions in all cases: for MIC: Mycobacterium tuberculosis
Mtb. 7357/1998 (MDR-TB) = system: Mtb. 7357/1998 (MDR-TB)
Mtb. 9449/2007 (MDR-TB) = system: Mtb. 9449/2007 (MDR-TB)
Mtb. Praha 131 (XDR-TB) = system: Mtb. Praha 131 (XDR-TB)
Mtb. 234/2005 (MDR-TB) = system: Mtb. 234/2005 (MDR-TB)
Mtb. Praha 4 (MDR-TB) = system: Mtb. Praha 4 (MDR-TB)
Mtb. Praha 1 (MDR-TB) = system: Mtb. Praha 1 (MDR-TB)
Mtb. 8666/2010 (MDR-TB) = system: Mtb. 8666/2010 (MDR-TB)
[1] = 336 h, read-out: MIC Mtb. 7357/1998 14 d
[2] = 504 h, read-out: MIC Mtb. 7357/1998 21 d
[3] = 336 h, read-out: MIC Mtb. 9449/2007 14 d
[4] = 504 h, read-out: MIC Mtb. 9449/2007 21 d
[5] = 336 h, read-out: MIC Mtb. Praha 131 14 d
[6] = 504 h, read-out: MIC Mtb. Praha 131 21 d
[7] = 336 h, read-out: MIC Mtb. 234/2005 14 d
[8] = 504 h, read-out: MIC Mtb. 234/2005 21 d
[9] = 336 h, read-out: MIC Mtb. Praha 4 14 d
[10] = 504 h, read-out: MIC Mtb. Praha 4 21 d
[11] = 336 h, read-out: MIC Mtb. Praha 1 14 d
[12] = 504 h, read-out: MIC Mtb. Praha 1 21 d
[13] = 336 h, read-out: MIC Mtb. 8666/2010 14 d
[14] = 504 h, read-out: MIC Mtb. 8666/2010 21 d

| Molecule | MIC (Mtb. 7357/1998 (MDR-TB); [1]) [µM] | MIC (Mtb. 7357/1998 (MDR-TB); [2]) [µM] | MIC (Mtb. 9449/2007 (MDR-TB); [3]) [µM] | MIC (Mtb. 9449/2007 (MDR-TB); [4]) [µM] | MIC (Mtb. Praha 131 (XDR-TB); [5]) [µM] | MIC (Mtb. Praha 131 (XDR-TB); [6]) [µM] | MIC (Mtb. 234/2005 (MDR-TB); [7]) [µM] | MIC (Mtb. 234/2005 (MDR-TB); [8]) [µM] | MIC (Mtb. Praha 4 (MDR-TB); [9]) [µM] | MIC (Mtb. Praha 4 (MDR-TB); [10]) [µM] | MIC (Mtb. Praha 1 (MDR-TB); [11]) [µM] | MIC (Mtb. Praha 1 (MDR-TB); [12]) [µM] | MIC (Mtb. 8666/2010 (MDR-TB); [13]) [µM] | MIC (Mtb. 8666/2010 (MDR-TB); [14]) [µM] | further results |
| --- | --- | --- | --- | --- | --- | --- | --- | --- | --- | --- | --- | --- | --- | --- | --- |
| 5-Isopropyl-2-methylphenyl (E)-2-(2-isonicotinoylhydrazineylidene)propanoate [3k] |  |  |  |  |  |  |  |  |  |  |  |  |  |  | MIC Mtb. 7357/1998 14 d (Mtb. 7357/1998 (MDR-TB); 14 d incubation): 32 µM; MIC Mtb. 7357/1998 21 d (Mtb. 7357/1998 (MDR-TB); 21 d incubation): 32 µM; MIC Mtb. 9449/2007 14 d (Mtb. 9449/2007 (MDR-TB); 14 d incubation): 32 µM; MIC Mtb. 9449/2007 21 d (Mtb. 9449/2007 (MDR-TB); 21 d incubation): 32 µM; MIC Mtb. Praha 131 14 d (Mtb. Praha 131 (XDR-TB); 14 d incubation): 32 µM; MIC Mtb. Praha 131 21 d (Mtb. Praha 131 (XDR-TB); 21 d incubation): 64 µM; MIC Mtb. 234/2005 14 d (Mtb. 234/2005 (MDR-TB); 14 d incubation): 32 µM; MIC Mtb. 234/2005 21 d (Mtb. 234/2005 (MDR-TB); 21 d incubation): 32 µM; MIC Mtb. Praha 4 14 d (Mtb. Praha 4 (MDR-TB); 14 d incubation): 16 µM; MIC Mtb. Praha 4 21 d (Mtb. Praha 4 (MDR-TB); 21 d incubation): 32 µM; MIC Mtb. Praha 1 14 d (Mtb. Praha 1 (MDR-TB); 14 d incubation): 125 µM; MIC Mtb. Praha 1 21 d (Mtb. Praha 1 (MDR-TB); 21 d incubation): 125 µM; MIC Mtb. 8666/2010 14 d (Mtb. 8666/2010 (MDR-TB); 14 d incubation): 16 µM; MIC Mtb. 8666/2010 21 d (Mtb. 8666/2010 (MDR-TB); 21 d incubation): 32 µM |
| C/C(=N\NC(=O)c1ccncc1)C(=O)Oc1ccccc1 [3b, Phenyl (E)-2-(2-isonicotinoylhydrazineylidene)propanoate] | 16 (≈ 4.53 µg/mL) | 16 (≈ 4.53 µg/mL) | 32 (≈ 9.07 µg/mL) | 32 (≈ 9.07 µg/mL) | 16 (≈ 4.53 µg/mL) | 16 (≈ 4.53 µg/mL) | 32 (≈ 9.07 µg/mL) | 32 (≈ 9.07 µg/mL) | 16 (≈ 4.53 µg/mL) | 16 (≈ 4.53 µg/mL) | 16 (≈ 4.53 µg/mL) | 16 (≈ 4.53 µg/mL) | 16 (≈ 4.53 µg/mL) | 16 (≈ 4.53 µg/mL) |  |
| COc1ccc(OC(=O)/C(C)=N/NC(=O)c2ccncc2)cc1 [3d, 4-Methoxyphenyl (E)-2-(2-isonicotinoylhydrazineylidene)propanoate] | 16 (≈ 5.01 µg/mL) | 16 (≈ 5.01 µg/mL) | 16 (≈ 5.01 µg/mL) | 16 (≈ 5.01 µg/mL) | 8 (≈ 2.51 µg/mL) | 16 (≈ 5.01 µg/mL) | 16 (≈ 5.01 µg/mL) | 32 (≈ 10 µg/mL) | 16 (≈ 5.01 µg/mL) | 32 (≈ 10 µg/mL) | 8 (≈ 2.51 µg/mL) | 16 (≈ 5.01 µg/mL) | 8 (≈ 2.51 µg/mL) | 16 (≈ 5.01 µg/mL) |  |
| C/C(=N\NC(=O)c1ccncc1)C(=O)Oc1ccc(Cl)cc1 [3g, 4-Chlorophenyl (E)-2-(2-isonicotinoylhydrazineylidene)propanoate] | 16 (≈ 5.08 µg/mL) | 16 (≈ 5.08 µg/mL) | 16 (≈ 5.08 µg/mL) | 16 (≈ 5.08 µg/mL) | 8 (≈ 2.54 µg/mL) | 8 (≈ 2.54 µg/mL) | 16 (≈ 5.08 µg/mL) | 32 (≈ 10.2 µg/mL) | 16 (≈ 5.08 µg/mL) | 16 (≈ 5.08 µg/mL) | 8 (≈ 2.54 µg/mL) | 8 (≈ 2.54 µg/mL) | 8 (≈ 2.54 µg/mL) | 16 (≈ 5.08 µg/mL) |  |
| C/C(=N\NC(=O)c1ccncc1)C(=O)Oc1cccc2ccccc12 [3i, Naphthalen-1-yl (E)-2-(2-isonicotinoylhydrazineylidene)propanoate] | 16 (≈ 5.33 µg/mL) | 32 (≈ 10.7 µg/mL) | 32 (≈ 10.7 µg/mL) | 32 (≈ 10.7 µg/mL) | 32 (≈ 10.7 µg/mL) | 32 (≈ 10.7 µg/mL) | 16 (≈ 5.33 µg/mL) | 32 (≈ 10.7 µg/mL) | 16 (≈ 5.33 µg/mL) | 32 (≈ 10.7 µg/mL) | 64 (≈ 21.3 µg/mL) | 125 (≈ 41.7 µg/mL) | 16 (≈ 5.33 µg/mL) | 16 (≈ 5.33 µg/mL) |  |
| C/C(=N\NC(=O)c1ccncc1)C(=O)Oc1ccc2ccccc2c1 [3j, Naphthalen-2-yl (E)-2-(2-isonicotinoylhydrazineylidene)propanoate] | 32 (≈ 10.7 µg/mL) | 32 (≈ 10.7 µg/mL) | 32 (≈ 10.7 µg/mL) | 32 (≈ 10.7 µg/mL) | 32 (≈ 10.7 µg/mL) | 32 (≈ 10.7 µg/mL) | 16 (≈ 5.33 µg/mL) | 32 (≈ 10.7 µg/mL) | 32 (≈ 10.7 µg/mL) | 32 (≈ 10.7 µg/mL) | 125 (≈ 41.7 µg/mL) | 125 (≈ 41.7 µg/mL) | 16 (≈ 5.33 µg/mL) | 32 (≈ 10.7 µg/mL) |  |
| C/C(=N\NC(=O)c1ccncc1)C(=O)Oc1cc(C(C)C)ccc1C [3l, 2-Isopropyl-5-methyphenyl (E)-2-(2-isonicotinoylhydrazineylidene)propanoate] | 16 (≈ 5.43 µg/mL) | 32 (≈ 10.9 µg/mL) | 16 (≈ 5.43 µg/mL) | 32 (≈ 10.9 µg/mL) | 32 (≈ 10.9 µg/mL) | 64 (≈ 21.7 µg/mL) | 16 (≈ 5.43 µg/mL) | 32 (≈ 10.9 µg/mL) | 8 (≈ 2.72 µg/mL) | 16 (≈ 5.43 µg/mL) | 32 (≈ 10.9 µg/mL) | 64 (≈ 21.7 µg/mL) | 16 (≈ 5.43 µg/mL) | 16 (≈ 5.43 µg/mL) |  |
| C/C(=N\NC(=O)c1ccncc1)C(=O)Oc1cccc2cccnc12 [3m, Quinolin-8-yl (E)-2-(2-isonicotinoylhydrazineylidene)propanoate] | 8 (≈ 2.67 µg/mL) | 8 (≈ 2.67 µg/mL) | 8 (≈ 2.67 µg/mL) | 8 (≈ 2.67 µg/mL) | 8 (≈ 2.67 µg/mL) | 8 (≈ 2.67 µg/mL) | 8 (≈ 2.67 µg/mL) | 8 (≈ 2.67 µg/mL) | 8 (≈ 2.67 µg/mL) | 8 (≈ 2.67 µg/mL) | 8 (≈ 2.67 µg/mL) | 8 (≈ 2.67 µg/mL) | 8 (≈ 2.67 µg/mL) | 8 (≈ 2.67 µg/mL) |  |
| C/C(=N\NC(=O)c1ccncc1)C(=O)Oc1cc(Cl)ccc1Oc1ccc(Cl)cc1Cl [3o, 5-Chloro-2-(2,4-dichlorophenoxy)phenyl (E)-2-(2-isonicotinoylhydrazineylidene)propanoate] | 32 (≈ 15.3 µg/mL) | 32 (≈ 15.3 µg/mL) | 32 (≈ 15.3 µg/mL) | 32 (≈ 15.3 µg/mL) | 32 (≈ 15.3 µg/mL) | 32 (≈ 15.3 µg/mL) | 32 (≈ 15.3 µg/mL) | 32 (≈ 15.3 µg/mL) | 32 (≈ 15.3 µg/mL) | 32 (≈ 15.3 µg/mL) | 125 (≈ 59.8 µg/mL) | 125 (≈ 59.8 µg/mL) | 32 (≈ 15.3 µg/mL) | 32 (≈ 15.3 µg/mL) |  |
| CC(=O)Nc1ccc(OC(=O)C(C)=NNC(=O)c2ccncc2)cc1 [3p, 4-Acetamidophenyl 2-(2-isonicotinoylhydrazineylidene)propanoate] | 16 (≈ 5.45 µg/mL) | 32 (≈ 10.9 µg/mL) | 32 (≈ 10.9 µg/mL) | 64 (≈ 21.8 µg/mL) | 32 (≈ 10.9 µg/mL) | 64 (≈ 21.8 µg/mL) | 32 (≈ 10.9 µg/mL) | 64 (≈ 21.8 µg/mL) | 32 (≈ 10.9 µg/mL) | 32 (≈ 10.9 µg/mL) | 125 (≈ 42.5 µg/mL) | 125 (≈ 42.5 µg/mL) | 32 (≈ 10.9 µg/mL) | 32 (≈ 10.9 µg/mL) |  |
| C/C(=N\NC(=O)c1ccncc1)C(=O)OCCn1c([N+](=O)[O-])cnc1C [3q, 2-(2-Methyl-5-nitro-1H-imidazol-1-yl)ethyl (E)-2-(2 isonicotinoylhydrazineylidene)propanoate] | 16 (≈ 5.77 µg/mL) | 32 (≈ 11.5 µg/mL) | 32 (≈ 11.5 µg/mL) | 32 (≈ 11.5 µg/mL) | 16 (≈ 5.77 µg/mL) | 32 (≈ 11.5 µg/mL) | 32 (≈ 11.5 µg/mL) | 32 (≈ 11.5 µg/mL) | 32 (≈ 11.5 µg/mL) | 32 (≈ 11.5 µg/mL) | 125 (≈ 45 µg/mL) | 125 (≈ 45 µg/mL) | 16 (≈ 5.77 µg/mL) | 16 (≈ 5.77 µg/mL) |  |
| C/C(=N\NC(=O)c1ccncc1)C(=O)Sc1ccccc1 [3s, S-Phenyl (E)-2-(2-isonicotinoylhydrazineylidene)propanethioate] | 32 (≈ 9.58 µg/mL) | 64 (≈ 19.2 µg/mL) | 64 (≈ 19.2 µg/mL) | 64 (≈ 19.2 µg/mL) | 32 (≈ 9.58 µg/mL) | 64 (≈ 19.2 µg/mL) | 32 (≈ 9.58 µg/mL) | 64 (≈ 19.2 µg/mL) | 32 (≈ 9.58 µg/mL) | 64 (≈ 19.2 µg/mL) | 64 (≈ 19.2 µg/mL) | 125 (≈ 37.4 µg/mL) | 32 (≈ 9.58 µg/mL) | 32 (≈ 9.58 µg/mL) |  |
